Positions of bridges follow the written chain, without caps; N, C: chain ends. Residues, ends and D or L forms follow the SMILES beside them.
Experiment: Inhibition of C3b activation relative to compstatin

logIC50	Structure (SMILES)
1.83	CC[C@H](C)[C@H](NC(C)=O)C(=O)N[C@H]1CSSC[C@@H](C(=O)N[C@H](C(=O)O)[C@@H](C)O)NC(=O)[C@H](CCCNC(=N)N)NC(=O)[C@H](Cc2cnc[nH]2)NC(=O)[C@H](C)NC(=O)CNC(=O)[C@H](Cc2c[nH]c3ccccc23)NC(=O)[C@H](CC(=O)O)NC(=O)[C@H](CCC(N)=O)NC(=O)[C@@H](Cc2csc3ccccc23)NC(=O)[C@H](C(C)C)NC1=O
1.69	CC[C@H](C)[C@H](NC(C)=O)C(=O)N[C@H]1CSSC[C@@H](C(=O)N[C@H](C(=O)O)[C@@H](C)O)NC(=O)[C@H](CCCNC(=N)N)NC(=O)[C@H](Cc2cnc[nH]2)NC(=O)[C@H](C)NC(=O)CNC(=O)[C@H](Cc2c[nH]c3ccccc23)NC(=O)[C@H](CC(=O)O)NC(=O)[C@H](CCC(N)=O)NC(=O)[C@H](Cc2ccc(C(=O)c3ccccc3)cc2)NC(=O)[C@H](C(C)C)NC1=O
1.47	CC[C@H](C)[C@H](NC(C)=O)C(=O)N[C@H]1CSSC[C@@H](C(=O)N[C@H](C(=O)O)[C@@H](C)O)NC(=O)[C@H](CCCNC(=N)N)NC(=O)[C@H](Cc2cnc[nH]2)NC(=O)[C@H](C)NC(=O)CNC(=O)[C@H](Cc2c[nH]c3ccccc23)NC(=O)[C@H](CC(=O)O)NC(=O)[C@H](CCC(N)=O)NC(=O)[C@H](Cc2cccc3ccccc23)NC(=O)[C@H](C(C)C)NC1=O
2.08	CC[C@H](C)[C@H](NC(C)=O)C(=O)N[C@H]1CSSC[C@@H](C(=O)N[C@H](C(N)=O)[C@@H](C)O)NC(=O)[C@H](CCCNC(=N)N)NC(=O)[C@H](Cc2cnc[nH]2)NC(=O)[C@H](C)NC(=O)CNC(=O)[C@H](Cc2c[nH]c3ccc(F)cc23)NC(=O)[C@H](CC(=O)O)NC(=O)[C@H](CCC(N)=O)NC(=O)[C@H](Cc2c[nH]c3ccccc23)NC(=O)[C@H](C(C)C)NC1=O
1.58	CC[C@H](C)[C@H](NC(C)=O)C(=O)N[C@H]1CSSC[C@@H](C(=O)N[C@H](C(N)=O)[C@@H](C)O)NC(=O)[C@H](CCCNC(=N)N)NC(=O)[C@H](Cc2cnc[nH]2)NC(=O)[C@H](C)NC(=O)CNC(=O)[C@H](Cc2c[nH]c3ccccc23)NC(=O)[C@H](CC(=O)O)NC(=O)[C@H](CCC(N)=O)NC(=O)[C@H](C2Cc3ccccc3C2)NC(=O)[C@H](C(C)C)NC1=O
1.79	CC[C@H](C)[C@H](NC(C)=O)C(=O)N[C@H]1CSSC[C@@H](C(=O)N[C@H](C(N)=O)[C@@H](C)O)NC(=O)[C@H](CCCNC(=N)N)NC(=O)[C@H](Cc2cnc[nH]2)NC(=O)[C@H](C)NC(=O)CNC(=O)[C@H](Cc2c[nH]c3ccccc23)NC(=O)[C@H](CC(=O)O)NC(=O)[C@H](CCC(N)=O)NC(=O)[C@H](Cc2c[nH]c3ccc(C)cc23)NC(=O)[C@H](C(C)C)NC1=O
1.65	CC[C@H](C)[C@H](NC(C)=O)C(=O)N[C@H]1CSSC[C@@H](C(=O)N[C@H](C(N)=O)[C@@H](C)O)NC(=O)[C@H](CCCNC(=N)N)NC(=O)[C@H](Cc2cnc[nH]2)NC(=O)[C@H](C)NC(=O)CNC(=O)[C@H](Cc2c[nH]c3ccccc23)NC(=O)[C@H](CC(=O)O)NC(=O)[C@H](CCC(N)=O)NC(=O)[C@H](Cc2c[nH]c3ccccc23)NC(=O)[C@H](C(C)C)NC1=O
1.95	CC[C@H](C)[C@H](NC(C)=O)C(=O)N[C@H]1CSSC[C@@H](C(=O)N[C@H](C(N)=O)[C@@H](C)O)NC(=O)[C@H](CCCNC(=N)N)NC(=O)[C@H](Cc2cnc[nH]2)NC(=O)[C@H](C)NC(=O)CNC(=O)[C@H](Cc2c[nH]c3ccccc23)NC(=O)[C@H](CC(=O)O)NC(=O)[C@H](CCC(N)=O)NC(=O)[C@H](Cc2ccc(C(=O)c3ccccc3)cc2)NC(=O)[C@H](C(C)C)NC1=O
1.17	CC[C@H](C)[C@H](NC(C)=O)C(=O)N[C@H]1CSSC[C@@H](C(=O)N[C@H](C(N)=O)[C@@H](C)O)NC(=O)[C@H](CCCNC(=N)N)NC(=O)[C@H](Cc2cnc[nH]2)NC(=O)[C@H](C)NC(=O)CNC(=O)[C@H](Cc2c[nH]c3ccccc23)NC(=O)[C@H](CC(=O)O)NC(=O)[C@H](CCC(N)=O)NC(=O)[C@H](Cc2ccc(O)cc2)NC(=O)[C@H](C(C)C)NC1=O
1.99	CC[C@H](C)[C@H](NC(C)=O)C(=O)N[C@H]1CSSC[C@@H](C(=O)N[C@H](C(N)=O)[C@@H](C)O)NC(=O)[C@H](CCCNC(=N)N)NC(=O)[C@H](Cc2cnc[nH]2)NC(=O)[C@H](C)NC(=O)CNC(=O)[C@H](Cc2c[nH]c3ccccc23)NC(=O)[C@H](CC(=O)O)NC(=O)[C@H](CCC(N)=O)NC(=O)[C@H](Cc2cccc3ccccc23)NC(=O)[C@H](C(C)C)NC1=O
2.42	CC[C@H](C)[C@H](NC(C)=O)C(=O)N[C@H]1CSSC[C@@H](C(=O)N[C@H](C(N)=O)[C@@H](C)O)NC(=O)[C@H](CCCNC(=N)N)NC(=O)[C@H](Cc2cnc[nH]2)NC(=O)[C@H](C)NC(=O)CNC(=O)[C@H](Cc2c[nH]c3ccccc23)NC(=O)[C@H](CC(=O)O)NC(=O)[C@H](CCC(N)=O)NC(=O)[C@H](Cc2cn(C)c3ccccc23)NC(=O)[C@H](C(C)C)NC1=O
1.83	CC[C@H](C)[C@H](NC(C)=O)C(=O)N[C@H]1CSSC[C@@H](C(=O)N[C@H](C(N)=O)[C@@H](C)O)NC(=O)[C@H](CCCNC(=N)N)NC(=O)[C@H](Cc2cnc[nH]2)NC(=O)[C@H](C)NC(=O)CNC(=O)[C@H](Cc2c[nH]c3ccccc23)NC(=O)[C@H](CC(=O)O)NC(=O)[C@H](CCC(N)=O)NC(=O)[C@H](Cc2csc3ccccc23)NC(=O)[C@H](C(C)C)NC1=O
1.49	CC[C@H](C)[C@H](NC(C)=O)C(=O)N[C@H]1CSSC[C@@H](C(=O)N[C@H](C(N)=O)[C@H](C)O)NC(=O)[C@H](CCCNC(=N)N)NC(=O)[C@H](Cc2cnc[nH]2)NC(=O)[C@H](C)NC(=O)CNC(=O)[C@H](Cc2c[nH]c3ccccc23)NC(=O)[C@H](CC(=O)O)NC(=O)[C@H](CCC(N)=O)NC(=O)[C@H](Cc2c[nH]c3ccc(F)cc23)NC(=O)[C@H](C(C)C)NC1=O

Further lines, the compound ahead of its results:

Structure (SMILES)	logIC50
CC[C@H](C)[C@H](N)C(=O)N[C@H]1CSSC[C@@H](C(=O)N[C@H](C(=O)O)[C@@H](C)O)NC(=O)[C@H](CCCNC(=N)N)NC(=O)[C@H](Cc2cnc[nH]2)NC(=O)[C@H](C)NC(=O)CNC(=O)[C@H](Cc2c[nH]c3ccccc23)NC(=O)[C@H](CC(=O)O)NC(=O)[C@H](CCC(N)=O)NC(=O)[C@H](C2Cc3ccccc3C2)NC(=O)[C@H](C(C)C)NC1=O	1.55
CC[C@H](C)[C@H](N)C(=O)N[C@H]1CSSC[C@@H](C(=O)N[C@H](C(=O)O)[C@@H](C)O)NC(=O)[C@H](CCCNC(=N)N)NC(=O)[C@H](Cc2cnc[nH]2)NC(=O)[C@H](C)NC(=O)CNC(=O)[C@H](Cc2c[nH]c3ccccc23)NC(=O)[C@H](CC(=O)O)NC(=O)[C@H](CCC(N)=O)NC(=O)[C@H](Cc2ccc3ccccc3c2)NC(=O)[C@H](C(C)C)NC1=O	1.58
CC[C@H](C)[C@H](N)C(=O)N[C@H]1CSSC[C@@H](C(=O)N[C@H](C(N)=O)[C@@H](C)O)NC(=O)[C@H](CCCNC(=N)N)NC(=O)[C@H](Cc2cnc[nH]2)NC(=O)[C@H](Cc2cnc[nH]2)NC(=O)CNC(=O)[C@H](Cc2c[nH]c3ccccc23)NC(=O)[C@H](CC(=O)O)NC(=O)[C@H](CCC(N)=O)NC(=O)[C@H](C(C)C)NC(=O)[C@H](C(C)C)NC1=O	0
CC[C@H](C)[C@H](NC(C)=O)C(=O)N[C@H]1CSSC[C@@H](C(=O)N[C@H](C(N)=O)[C@@H](C)O)NC(=O)[C@H](CCCNC(=N)N)NC(=O)[C@H](Cc2cnc[nH]2)NC(=O)[C@H](C)NC(=O)CNC(=O)[C@H](Cc2c[nH]c3cc(F)ccc23)NC(=O)[C@H](CC(=O)O)NC(=O)[C@H](CCC(N)=O)NC(=O)[C@H](Cc2c[nH]c3cc(F)ccc23)NC(=O)[C@H](C(C)C)NC1=O	2.1
CC[C@H](C)[C@H](NC(C)=O)C(=O)N[C@H]1CSSC[C@@H](C(=O)N[C@H](C(N)=O)[C@@H](C)O)NC(=O)[C@H](CCCNC(=N)N)NC(=O)[C@H](Cc2cnc[nH]2)NC(=O)[C@H](C)NC(=O)CNC(=O)[C@H](Cc2c[nH]c3ccc(F)cc23)NC(=O)[C@H](CC(=O)O)NC(=O)[C@H](CCC(N)=O)NC(=O)[C@H](Cc2cn(C)c3ccccc23)NC(=O)[C@H](C(C)C)NC1=O	2.42
CC[C@H](C)[C@H](NC(C)=O)C(=O)N[C@H]1CSSC[C@@H](C(=O)N[C@H](C(N)=O)[C@@H](C)O)NC(=O)[C@H](CCCNC(=N)N)NC(=O)[C@H](Cc2cnc[nH]2)NC(=O)[C@H](C)NC(=O)CNC(=O)[C@H](Cc2c[nH]c3ccc(O)cc23)NC(=O)[C@H](CC(=O)O)NC(=O)[C@H](CCC(N)=O)NC(=O)[C@H](Cc2c[nH]c3ccc(O)cc23)NC(=O)[C@H](C(C)C)NC1=O	0.211
CC[C@H](C)[C@H](NC(C)=O)C(=O)N[C@H]1CSSC[C@@H](C(=O)N[C@H](C(N)=O)[C@@H](C)O)NC(=O)[C@H](CCCNC(=N)N)NC(=O)[C@H](Cc2cnc[nH]2)NC(=O)[C@H](C)NC(=O)CNC(=O)[C@H](Cc2c[nH]c3ccccc23)NC(=O)[C@H](CC(=O)O)NC(=O)[C@H](CCC(N)=O)NC(=O)[C@H](CC2CCCCC2)NC(=O)[C@H](C(C)C)NC1=O	0.056
CC[C@H](C)[C@H](NC(C)=O)C(=O)N[C@H]1CSSC[C@@H](C(=O)N[C@H](C(N)=O)[C@@H](C)O)NC(=O)[C@H](CCCNC(=N)N)NC(=O)[C@H](Cc2cnc[nH]2)NC(=O)[C@H](C)NC(=O)CNC(=O)[C@H](Cc2c[nH]c3ncccc23)NC(=O)[C@H](CC(=O)O)NC(=O)[C@H](CCC(N)=O)NC(=O)[C@H](Cc2c[nH]c3ncccc23)NC(=O)[C@H](C(C)C)NC1=O	-0.358
CC[C@H](C)[C@H](NC(C)=O)C(=O)N[C@H]1CSSC[C@@H](C(=O)N[C@H](C(N)=O)[C@@H](C)O)NC(=O)[C@H](CCCNC(=N)N)NC(=O)[C@H](Cc2cnc[nH]2)NC(=O)[C@H](Cc2cnc[nH]2)NC(=O)CNC(=O)[C@H](Cc2c[nH]c3ccccc23)NC(=O)[C@H](CC(=O)O)NC(=O)[C@H](CCC(N)=O)NC(=O)[C@H](C(C)C)NC(=O)[C@H](C(C)C)NC1=O	0.477
CC[C@H](C)[C@H](NC(C)=O)C(=O)N[C@H]1CSSC[C@@H](C(=O)N[C@H](C(N)=O)[C@H](C)O)NC(=O)[C@H](CCCNC(=N)N)NC(=O)[C@H](Cc2cnc[nH]2)NC(=O)[C@H](Cc2cnc[nH]2)NC(=O)CNC(=O)[C@H](Cc2c[nH]c3ccccc23)NC(=O)[C@H](CC(=O)O)NC(=O)[C@H](CCC(N)=O)NC(=O)[C@H](Cc2c[nH]c3ccccc23)NC(=O)[C@H](C(C)C)NC1=O	1.39
CC[C@H](C)[C@H](NC(C)=O)C(=O)N[C@H]1CSSC[C@@H](C(=O)N[C@H](C(N)=O)[C@@H](C)O)NC(=O)[C@H](CCCNC(=N)N)NC(=O)[C@H](Cc2cnc[nH]2)NC(=O)[C@H](Cc2cnc[nH]2)NC(=O)CNC(=O)[C@H](Cc2c[nH]c3ccccc23)NC(=O)[C@H](CC(=O)O)NC(=O)[C@H](CC(N)=O)NC(=O)[C@H](C(C)C)NC(=O)[C@H](CC(C)C)NC1=O (Ac-ICLVNDWGHHRCT-NH2; disulfide 2-12)	0.16
